# Laboratory results taken from US5969017A, “Methods of treating or preventing cardiac arrhythmia” (Merck & Co., Inc., priority 1997, dated 1999).
# “Also recorded” adds a separate entry of the source. Like-named read-outs stand apart in the source and are kept apart here.
# Biological target: T1, hKv1.5 expressed in Chinese Hamster Ovary (CHO) cells (Homo sapiens, UniProt P22460)
# T1 construct: expressed in transfected cells; host or cells: CHO-K1 cells (CHOKI in source), pcDNAI/Neo plasmid, G418-selected clones
# T1 sequence (P22460 whole entry): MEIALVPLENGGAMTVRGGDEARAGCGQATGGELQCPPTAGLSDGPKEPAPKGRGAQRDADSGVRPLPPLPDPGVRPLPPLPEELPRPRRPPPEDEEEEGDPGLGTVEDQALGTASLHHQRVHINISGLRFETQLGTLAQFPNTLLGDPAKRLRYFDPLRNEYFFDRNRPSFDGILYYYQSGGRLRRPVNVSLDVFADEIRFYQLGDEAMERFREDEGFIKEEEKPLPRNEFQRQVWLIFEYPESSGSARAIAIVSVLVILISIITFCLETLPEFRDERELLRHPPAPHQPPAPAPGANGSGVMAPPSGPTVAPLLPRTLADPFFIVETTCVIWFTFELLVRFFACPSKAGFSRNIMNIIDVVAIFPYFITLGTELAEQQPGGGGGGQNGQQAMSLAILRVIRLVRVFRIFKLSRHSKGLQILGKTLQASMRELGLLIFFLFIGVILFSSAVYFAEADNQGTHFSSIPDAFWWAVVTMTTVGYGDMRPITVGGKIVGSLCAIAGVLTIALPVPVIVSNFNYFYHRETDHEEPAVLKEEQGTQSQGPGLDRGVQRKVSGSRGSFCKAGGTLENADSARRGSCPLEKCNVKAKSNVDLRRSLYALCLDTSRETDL
# Test: Voltage clamp measurement of hKv1.5 block (rested state, use-dependent, rate-dependent) in CHO cells
# Type: cell-based
# Settings: for Rate-Dpdnt Ratio: 3 Hz vs 1 Hz, last pulse, <1 = rate-dependent; for Use-Dpdnt Ratio: 10th vs 1st pulse @ 1 Hz, <1 = use-dependent; for selective blockade of hKv1.5 (in words): relative to other cardiac K+ channels; for rate-dependent ratio for block of hKv1.5 (bound) / use-dependent ratio for block of hKv1.5 (bound): summary of Table 1
# Procedure: A. Measurement of Kv1.5 in CHO cells
# Expression of Kv1.5 in CHO Cells
# A cDNA encoding Kv1.5, isolated from a human fetal heart library, was subcloned into pcDNAI/Neo (Invitrogen) as a Hind III--Xba I fragment.
# CHOKI cells were plated at 2.7×10^4 cells/60 mm dish and incubated at 37° C., in a 5% CO2 environment for three days. Cells were then washed twice and covered with 3 ml of OptiMEM medium (Gibco). Plasmid/DOTAP solution (consisting of […] of Kv1.5 in pcDNAI/Neo and […] DOTAP transfection reagent (Boehringer Mannheim) in 1 ml of OptiMEM) was added dropwise to each plate while swirling. Plates were incubated overnight and the media then changed to 5 mls of F12 (Gibco) supplemented with 10% FBS (Sigma), 1,000 U/ml penicillin […] streptomycin (Gibco), and 2 mM glutamine (Gibco). After two more days, the cells were trypsinized and replated on 100 mm dishes in supplemented F12 media including 1 mg/ml G418 (Gibco). The medium was changed daily until nontransfected cells were killed. Cell lines were grown from individual clones and tested for expression of Kv1.5 using both the ^86 RB efflux assay and voltage clamp protocols. […] These cells were maintained in culture and on each experimental day were freshly isolated by mild trypsinization.
# The patch-clamp technique was used to record ionic currents in the whole-cell configuration. Patch pipettes were obtained using a two stage puller from square bore (1.0 mm o.d.) borosillicate capillary tubing. Pipettes were filled with the following solution (in mM/L): 110 K-Gluconate or K-Aspartate, 20 KCl, 5 MgATP, 5 EGTA, 5-10 HEPES, pH 7.2. The electrodes had tip resistances ranging from 3 to 10 Mohm when filled with this solution. Following seal formation, the membrane was ruptured by gentle suction to establish the whole-cell configuration, and negative pressure was maintained on the pipette using a 1 ml gas-tight syringe attached via air tight tubing to the suction port of the microelectrode holder. […] Currents were sampled at 5 kHz using an Axopatch 200 A amplifier (Axon Instruments) or a List EPC-7 clamp amplifier (List Electronic) and were low pass filtered at 1 kHz.
# Measurements of Kv1.5 Expressed Currents:
# Kv1.5 currents were elicited by 150 ms depolarizing test pulses to +40 mV from a holding potential of -80 mV. The effects of test agents were assessed at steady-state. Data was analyzed as % block from control current amplitude. The amplitude of Kv1.5 was measured as the amplitude of the time-dependent net outward current at the end of the test pulse, relative to the holding current level. […] All experiments were performed at room temperature (22-24° C.).
# C. Measurement of Use-Dependent and Rate-Dependent Block.
# Pulses were applied in 10 second long trains delivered after 30 second rest intervals at frequencies of 1 Hz (10 pulses) or 3 Hz (30 pulses). Percent block of the current is defined as the % decrease in the current amplitude produced by an agent during a given pulse relative to the control current amplitude for that pulse. Rested-state block is the block of the current during the first pulse in a train following the 30 sec rest period. Use-dependent block is block that occurs to a progessively greater extent with each successive depolarization in a train or sequence of pulses or depolarizations delivered at a given rate or frequency. Thus, during a train of 10 depolarizations at frequency of 1 Hz, use-dependent block is assessed as the ratio of the amount of block for the 10th pulse relative to block for the 1st pulse (rested state block) of the train. Rate-dependent block is block that occurs to a greater extent or preferentially at faster rates of depolarization or heart rates. Thus, rate-dependent block is assessed as the ratio of the amount of block of the current during the last pulse of the 10 sec train at 3 Hz vs. 1 Hz.
# [1] = 30 nM, 1st pulse @ 1 Hz, +40 mV from -80 mV, read-out: Average % Block, Rested State, 1st pulse
# [2] = 30 nM, 10th pulse @ 1 Hz, read-out: Average % Block, Use-Dpdnt, 10th pulse
# [3] = 30 nM, 30th pulse @ 3 Hz, read-out: Average % Block, Rate-Dpdnt, 30th pulse
# [4] = 100 nM, 1st pulse @ 1 Hz, read-out: Average % Block, Rested State, 1st pulse
# [5] = 100 nM, 10th pulse @ 1 Hz, read-out: Average % Block, Use-Dpdnt, 10th pulse
# [6] = 100 nM, 30th pulse @ 3 Hz, read-out: Average % Block, Rate-Dpdnt, 30th pulse
# [7] = 300 nM, 1st pulse @ 1 Hz, read-out: Average % Block, Rested State, 1st pulse
# [8] = 300 nM, 10th pulse @ 1 Hz, read-out: Average % Block, Use-Dpdnt, 10th pulse
structure (smiles),measurement,setting,value
"CC1CCC(C(C)C)C(P(=O)(c2ccccc2)c2ccccc2)C1 (stereo not drawn) [A, (2-Isopropyl-5-methylcyclohexyl)diphenylphosphine oxide]",rate-dependent block of hKv1.5 (in words),,rate-dependent blockers; also recorded: strong rate-dependent profile
same,use-dependent block of hKv1.5 (in words),,use-dependentblockade
same,inhibition at 0.03 µM,[1],21.2%
same,inhibition at 0.03 µM,[2],38.5%
same,inhibition at 0.03 µM,[3],57.5%
same,inhibition at 0.1 µM,[4],32.1%
same,inhibition at 0.1 µM,[5],64.6%
same,inhibition at 0.1 µM,[6],82.9%
same,use-dependent block of hKv1.5 (in words),listed as (2-isopropyl-5-methylcyclohexyl) diphenyl-phosphine oxide,strong use-dependent profile
"Cc1cc(C)c(CP(=O)(c2ccccc2)c2ccccc2)c(-c2ccc(F)c(C)c2)c1 [B, 2-(Diphenylphosphinylmethyl)-4'-fluoro-3,5,3'-trimethyl-biphenyl]",rate-dependent block of hKv1.5 (in words),,rate-dependent blockers
same,use-dependent block of hKv1.5 (in words),,use-dependentblockade
same,inhibition at 0.1 µM,[4],23.3%
same,Rate-Dpdnt Ratio,100 nM,0.66
same,inhibition at 0.1 µM,[5],29.6%
same,Use-Dpdnt Ratio,100 nM,0.79
same,inhibition at 0.1 µM,[6],44.9%
same,inhibition at 0.3 µM,[7],43.5%
same,Rate-Dpdnt Ratio,300 nM,0.84
same,inhibition at 0.3 µM,[8],56.6%
same,Use-Dpdnt Ratio,300 nM,0.77
same,inhibition at 0.3 µM,"300 nM, 30th pulse @ 3 Hz, read-out: Average % Block, Rate-Dpdnt, 30th pulse",67.5%
same,selective blockade of hKv1.5 (in words),,selective blockade
same,rate-dependent ratio for block of hKv1.5 (bound),,< 1
same,use-dependent ratio for block of hKv1.5 (bound),,< 1
"COc1ccc(-n2nc(Sc3ccc(Cl)cc3)c(C)c(C#N)c2=O)cc1 [C, 6-(4-Chlorophenylthio)-2-(4-methoxyphenyl)-5-methyl-3-oxo-2,3-dihydropyridazine-4-carbonitrile]",rate-dependent block of hKv1.5 (in words),,rate-dependent blockers
same,use-dependent block of hKv1.5 (in words),,use-dependentblockade
same,inhibition at 0.03 µM,[1],6.6%
same,Rate-Dpdnt Ratio,30 nM,0.41
same,inhibition at 0.03 µM,[2],15.7%
same,Use-Dpdnt Ratio,30 nM,0.42
same,inhibition at 0.03 µM,[3],38%
same,inhibition at 0.1 µM,[4],51%
same,Rate-Dpdnt Ratio,100 nM,0.83
same,inhibition at 0.1 µM,[5],75.5%
same,Use-Dpdnt Ratio,100 nM,0.68
same,inhibition at 0.1 µM,[6],91.1%
same,selective blockade of hKv1.5 (in words),,selective blockade
same,rate-dependent ratio for block of hKv1.5 (bound),,< 1
same,use-dependent ratio for block of hKv1.5 (bound),,< 1
COc1ccc(-n2nc(Sc3ccc(C)cc3)c(C)c(C#N)c2=O)cc1 [D],use-dependent block of hKv1.5 (in words),,use-dependentblockade
same,inhibition at 0.1 µM,[4],31.1%
same,inhibition at 0.1 µM,[5],34%
same,Use-Dpdnt Ratio,100 nM,0.91
same,inhibition at 0.3 µM,[7],52%
same,inhibition at 0.3 µM,[8],62.5%
same,Use-Dpdnt Ratio,300 nM,0.83
same,selective blockade of hKv1.5 (in words),,selective blockade
same,use-dependent ratio for block of hKv1.5 (bound),,< 1
